# Experimental data from ChEMBL document CHEMBL3774308, “KATching-Up on Small Molecule Modulators of Lysine Acetyltransferases” (J Med Chem, 2016).
# Key:
# [1] = molecular target: T1, Histone acetyltransferase p300 (Homo sapiens, UniProt Q09472); assay: Inhibition of full length recombinant His6-tagged p300 (unknown origin) expressed in baculovirus expression system using histone substrate after 10 mins by liquid scintillation counting method in presence of [3H]acetyl-CoA
# [2] = molecular target: T2, Histone acetyltransferase KAT2B (Homo sapiens, UniProt Q92831); assay: Inhibition of recombinant PCAF (unknown origin) expressed in baculovirus expression system using histone substrate after 10 mins by liquid scintillation counting method in presence of [3H]acetyl-CoA
# Target sequence in this assay (Q92831 whole entry, the tested form may be a part): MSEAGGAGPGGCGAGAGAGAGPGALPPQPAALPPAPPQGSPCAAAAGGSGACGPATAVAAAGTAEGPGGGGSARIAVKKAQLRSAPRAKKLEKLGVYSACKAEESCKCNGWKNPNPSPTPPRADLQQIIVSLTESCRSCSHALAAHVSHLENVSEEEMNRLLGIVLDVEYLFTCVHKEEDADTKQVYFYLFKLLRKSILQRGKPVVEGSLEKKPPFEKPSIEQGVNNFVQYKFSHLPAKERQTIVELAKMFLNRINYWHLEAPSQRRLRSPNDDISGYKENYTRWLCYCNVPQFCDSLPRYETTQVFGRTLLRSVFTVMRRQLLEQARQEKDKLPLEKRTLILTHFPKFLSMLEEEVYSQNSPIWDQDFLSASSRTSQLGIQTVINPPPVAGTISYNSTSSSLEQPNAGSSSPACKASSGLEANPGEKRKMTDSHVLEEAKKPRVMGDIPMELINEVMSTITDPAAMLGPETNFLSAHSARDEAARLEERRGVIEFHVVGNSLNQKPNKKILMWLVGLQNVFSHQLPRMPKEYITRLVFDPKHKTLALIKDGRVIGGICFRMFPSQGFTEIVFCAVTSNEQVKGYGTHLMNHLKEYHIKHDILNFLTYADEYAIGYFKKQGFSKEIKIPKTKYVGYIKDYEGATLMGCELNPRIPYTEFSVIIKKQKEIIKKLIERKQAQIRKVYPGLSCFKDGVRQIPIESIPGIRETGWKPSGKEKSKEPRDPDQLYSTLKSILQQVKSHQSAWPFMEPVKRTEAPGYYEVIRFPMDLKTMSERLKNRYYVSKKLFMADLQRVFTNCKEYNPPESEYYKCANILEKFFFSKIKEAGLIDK
# [3] = molecular target: T1, Histone acetyltransferase p300; assay: Inhibition of human recombinant C-terminal GST-tagged p300 (1195 to 1673 residues) expressed in competent Escherichia coli DH5alpha cells using histone substrate after 30 mins by scintillation counting method in presence of [3H]acetyl-CoA
# [4] = molecular target: T1, Histone acetyltransferase p300; assay: Inhibition of recombinant p300 catalytic domain (unknown origin) using N-terminal histone H3 substrate at 52 uM by orthogonal fluorescence assay in presence of [3H]acetyl-CoA relative to control
# [5] = molecular target: T1, Histone acetyltransferase p300; assay: Inhibition of recombinant p300 catalytic domain (unknown origin) using N-terminal histone H3 substrate by radiometric filter binding assay in presence of [3H]acetyl-CoA
# [6] = molecular target: T1, Histone acetyltransferase p300; assay: Inhibition of recombinant p300 (unknown origin) expressed in baculovirus expression system using histone substrate at 50 uM after 10 mins by liquid scintillation counting method in presence of [3H]acetyl-CoA relative to control
# [7] = molecular target: T2, Histone acetyltransferase KAT2B; assay: Inhibition of recombinant PCAF (unknown origin) expressed in baculovirus expression system using histone substrate at 50 uM after 10 mins by liquid scintillation counting method in presence of [3H]acetyl-CoA relative to control
# Target sequence in this assay (Q92831 whole entry, looked up, the tested form may be a part): as the sequence (Q92831 whole entry, the tested form may be a part) above
# [8] = molecular target: T1, Histone acetyltransferase p300; assay: Activation of full length recombinant human His6-tagged p300 expressed in baculovirus infected Sf21 cells using N-terminal H3 peptide substrate at 275 uM after 10 mins by radiometric filter binding assay in presence of [3H]acetyl-CoA relative to control
# [9] = molecular target: T2, Histone acetyltransferase KAT2B; assay: Inhibition of full length recombinant FLAG-tagged PCAF (unknown origin) expressed in baculovirus expression system using histone substrate after 10 mins by liquid scintillation counting method in presence of [3H]acetyl-CoA
# Target sequence in this assay (Q92831 whole entry, the tested form may be a part): as above
# [10] = molecular target: T1, Histone acetyltransferase p300; assay: Inhibition of full length recombinant His6-tagged p300 (unknown origin) expressed in baculovirus expression system using histone substrate at 25 uM after 10 mins by liquid scintillation counting method in presence of [3H]acetyl-CoA relative to control
# [11] = molecular target: Histone acetyltransferase KAT5 (Homo sapiens, UniProt Q92993); assay: Inhibition of TIP60 (unknown origin) expressed in bacterial system using histone substrate at 25 uM after 10 mins by liquid scintillation counting method in presence of [3H]acetyl-CoA relative to control
# [12] = molecular target: T1, Histone acetyltransferase p300; assay: Inhibition of recombinant human p300 catalytic domain (1284 to 1673 residues) using histone H3 peptide substrate at 100 uM after 1 hr by liquid scintillation counting method in presence of [3H]acetyl-CoA relative to control
# [13] = molecular target: T2, Histone acetyltransferase KAT2B; assay: Inhibition of recombinant human PCAF catalytic domain (492 to 658 residues) using histone H3 peptide substrate at 100 uM after 1 hr by liquid scintillation counting method in presence of [3H]acetyl-CoA relative to control
# Target sequence in this assay (Q92831 whole entry, looked up, the tested form may be a part): as the sequence (Q92831 whole entry, the tested form may be a part) above
# [14] = molecular target: T1, Histone acetyltransferase p300; assay: Inhibition of full length recombinant His6-tagged p300 (unknown origin) expressed in baculovirus infected sf21 cells using histone substrate after 10 mins by liquid scintillation counting method in presence of [3H]acetyl-CoA
# T1 sequence (Q09472 whole entry): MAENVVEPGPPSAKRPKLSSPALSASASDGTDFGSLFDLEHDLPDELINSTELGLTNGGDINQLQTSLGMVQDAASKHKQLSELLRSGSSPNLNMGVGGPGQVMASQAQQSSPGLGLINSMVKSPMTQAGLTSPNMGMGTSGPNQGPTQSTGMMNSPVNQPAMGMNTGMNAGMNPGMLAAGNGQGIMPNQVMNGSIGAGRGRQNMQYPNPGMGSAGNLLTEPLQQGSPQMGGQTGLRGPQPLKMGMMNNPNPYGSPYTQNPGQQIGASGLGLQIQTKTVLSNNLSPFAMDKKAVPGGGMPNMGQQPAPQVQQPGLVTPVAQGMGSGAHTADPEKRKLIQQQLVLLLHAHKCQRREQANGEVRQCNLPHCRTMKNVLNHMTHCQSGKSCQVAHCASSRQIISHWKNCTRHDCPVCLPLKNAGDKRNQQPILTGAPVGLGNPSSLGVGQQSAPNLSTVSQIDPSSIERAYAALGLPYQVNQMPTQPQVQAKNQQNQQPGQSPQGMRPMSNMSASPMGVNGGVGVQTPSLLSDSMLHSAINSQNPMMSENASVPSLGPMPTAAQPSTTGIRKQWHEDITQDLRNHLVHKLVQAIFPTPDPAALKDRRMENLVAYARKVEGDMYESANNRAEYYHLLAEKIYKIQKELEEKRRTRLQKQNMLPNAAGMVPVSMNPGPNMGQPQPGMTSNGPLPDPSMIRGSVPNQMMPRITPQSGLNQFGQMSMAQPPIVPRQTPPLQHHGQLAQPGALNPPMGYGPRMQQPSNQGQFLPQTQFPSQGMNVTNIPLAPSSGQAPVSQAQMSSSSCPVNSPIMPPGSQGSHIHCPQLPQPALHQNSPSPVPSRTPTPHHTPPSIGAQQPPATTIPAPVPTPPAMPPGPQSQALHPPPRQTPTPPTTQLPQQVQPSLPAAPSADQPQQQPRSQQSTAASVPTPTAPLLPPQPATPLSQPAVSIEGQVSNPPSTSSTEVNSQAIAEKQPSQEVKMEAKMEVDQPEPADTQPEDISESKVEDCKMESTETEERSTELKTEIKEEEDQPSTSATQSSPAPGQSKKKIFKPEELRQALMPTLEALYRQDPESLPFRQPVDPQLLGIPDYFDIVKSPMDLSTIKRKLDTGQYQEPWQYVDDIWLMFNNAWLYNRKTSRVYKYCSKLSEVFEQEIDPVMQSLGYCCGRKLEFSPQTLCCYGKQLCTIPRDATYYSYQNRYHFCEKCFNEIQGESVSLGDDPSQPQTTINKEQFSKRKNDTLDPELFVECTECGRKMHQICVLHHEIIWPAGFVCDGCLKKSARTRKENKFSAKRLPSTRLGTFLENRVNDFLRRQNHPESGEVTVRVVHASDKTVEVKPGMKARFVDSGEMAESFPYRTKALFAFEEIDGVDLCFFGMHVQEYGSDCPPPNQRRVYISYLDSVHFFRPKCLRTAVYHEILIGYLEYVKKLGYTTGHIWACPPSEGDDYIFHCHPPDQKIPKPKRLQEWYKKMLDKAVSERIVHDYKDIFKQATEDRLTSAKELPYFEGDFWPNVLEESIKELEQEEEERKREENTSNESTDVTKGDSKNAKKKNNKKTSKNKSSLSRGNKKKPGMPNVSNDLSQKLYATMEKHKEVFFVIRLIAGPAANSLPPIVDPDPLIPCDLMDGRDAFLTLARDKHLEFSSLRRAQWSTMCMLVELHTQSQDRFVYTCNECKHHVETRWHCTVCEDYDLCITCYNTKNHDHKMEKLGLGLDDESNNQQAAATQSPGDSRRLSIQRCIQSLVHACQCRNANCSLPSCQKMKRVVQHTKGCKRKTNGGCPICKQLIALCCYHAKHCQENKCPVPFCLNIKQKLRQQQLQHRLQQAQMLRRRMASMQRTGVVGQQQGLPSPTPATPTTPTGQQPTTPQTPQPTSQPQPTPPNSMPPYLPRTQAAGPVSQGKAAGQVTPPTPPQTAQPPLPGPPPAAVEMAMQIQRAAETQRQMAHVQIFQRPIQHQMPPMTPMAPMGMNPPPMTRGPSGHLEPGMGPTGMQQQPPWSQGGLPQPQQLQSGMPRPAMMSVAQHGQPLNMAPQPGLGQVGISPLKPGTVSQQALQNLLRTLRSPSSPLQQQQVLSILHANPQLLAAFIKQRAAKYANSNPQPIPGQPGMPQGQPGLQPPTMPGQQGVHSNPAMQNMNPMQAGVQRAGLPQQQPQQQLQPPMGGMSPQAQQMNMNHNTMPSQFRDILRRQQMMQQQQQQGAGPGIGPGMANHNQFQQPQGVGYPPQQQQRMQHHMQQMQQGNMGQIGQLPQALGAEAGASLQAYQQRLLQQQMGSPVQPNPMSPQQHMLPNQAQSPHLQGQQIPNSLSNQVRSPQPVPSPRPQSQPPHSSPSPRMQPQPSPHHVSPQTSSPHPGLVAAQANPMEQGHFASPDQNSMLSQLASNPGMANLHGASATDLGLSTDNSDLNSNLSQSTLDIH
# Sequence of Histone acetyltransferase KAT5 (Q92993 whole entry, looked up, the tested form may be a part): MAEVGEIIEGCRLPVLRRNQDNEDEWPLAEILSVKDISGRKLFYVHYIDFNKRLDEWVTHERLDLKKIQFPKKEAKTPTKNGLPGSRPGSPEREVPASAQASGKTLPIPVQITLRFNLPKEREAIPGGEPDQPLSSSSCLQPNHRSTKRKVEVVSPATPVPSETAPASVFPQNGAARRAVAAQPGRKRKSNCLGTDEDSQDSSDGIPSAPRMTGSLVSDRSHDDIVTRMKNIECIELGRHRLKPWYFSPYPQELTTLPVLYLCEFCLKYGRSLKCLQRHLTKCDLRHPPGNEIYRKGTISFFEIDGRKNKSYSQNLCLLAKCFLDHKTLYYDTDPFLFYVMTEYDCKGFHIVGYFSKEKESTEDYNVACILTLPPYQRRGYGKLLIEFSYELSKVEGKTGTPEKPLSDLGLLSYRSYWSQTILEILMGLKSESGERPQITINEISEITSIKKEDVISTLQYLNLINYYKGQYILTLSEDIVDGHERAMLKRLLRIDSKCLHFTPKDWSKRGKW
compound,measurement,setting,value
CC1=CC(=O)c2c(O)cccc2C1=O [PLUMBAGIN],IC50,[1],20 µM
same,IC50,[2],50 µM
N=C(N)NCCC[C@@H]1NC(=O)/C(=C/c2ccc(O)c(OCC[C@H](NC(=O)C[C@](O)(CC(=O)N[C@@H](CC(=O)O)C(=O)O)C(=O)O)C(=O)O)c2)NC1=O,IC50,[3],0.011 µM
CCCCCCCCCCCCCCCc1cccc(O)c1C(=O)O [ANACARDIC ACID],%max,[4],60%
same,IC50,[5],4.15 µM
N=C(N)NCCC[C@@H]1NC(=O)/C(=C/c2ccc(O)c(OCC[C@H](NC(=O)C[C@](O)(CC(=O)O)C(=O)O)C(=O)O)c2)NC1=O,IC50,[3],0.022 µM
COc1cc(/C=C/c2cc(/C=C/c3ccc(O)c(OC)c3)n(-c3ccc(C(=O)O)cc3)n2)ccc1O,inhibition,[6],> 50%
same,inhibition,[7],> 50%
CCCCCCCCCCCCCCCc1cccc(OCC)c1C(=O)Nc1ccc(Cl)c(C(F)(F)F)c1,Emax,[8],400%
CCCCCCCCCCCC1=C(O)C(=O)C=C(O)C1=O [EMBELIN],IC50,[9],7.2 µM
same,inhibition,[10],75%
same,inhibition,[11],75%
CCCCCCCCCCCCCCC=C(C(=O)OCC)C(=O)OCC,inhibition,[12],81.2%
same,inhibition,[13],37.5%
COc1ccc(C(=O)C2=C3OC(C)(C)[C@@H](CC=C(C)C)C[C@@]34C[C@@H](/C=C\C(C)C)C(C)(C)[C@@](CC=C(C)C)(C2=O)C4=O)cc1O,IC50,[14],5 µM
